In patent US20250145606A1 (Arcus Biosciences, Inc., priority 2023, published 2025):
Read-outs that look alike come from different tables or passages of the source.

Columns and labels:
FLT3 = FLT3 (Homo sapiens (Human), UniProt P36888); test: Inhibition of FLT3 kinase activity (HTRF KinEASE-TK); assay type: biochemical
How it was run: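 FLT3 tyrosine kinase activity was measured with the HTRF KinEASE-TK kit by following phosphorylation of a biotinylated TK peptide. After the 45 min reaction, 10 μL of detection mix was added: 0.2 μM (2×) Streptavidin-XL665 and 2 μM (2×) TK-Antibody-Cryptate in detection buffer. After 60 min, TR-FRET was read on an Envision as the 665 nm/620 nm emission ratio with 320 nm excitation.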

c-Kit = c-Kit (Homo sapiens (Human), UniProt P10721); test: Inhibition of c-Kit kinase activity (HTRF KinEASE-TK); assay type: biochemical
How it was run: (§1)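 Recombinant kinases (2 nM CSF1R and c-Kit, 10 nM PDGFRα/β, 2× working) preincubated 1 h with compound in 50 mM HEPES pH 7.4, 5 mM MgCl2 (c-Kit) or 10 mM (others), 2 mM MnCl2; 2× ATP: c-Kit 16 μM, PDGFRα 1 μM, PDGFRβ 40 μM, CSF1R 20 μM. 120 min reaction at rt; TR-FRET 665/620 nm; IC50 by 4-parameter fit.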

CSF1R = CSF1R (Homo sapiens (Human), UniProt P07333); test: Inhibition of CSF1R kinase activity (HTRF KinEASE-TK); settings: biochemical, HTRF KinEASE-TK
How it was run: as §1

PDGFRβ = PDGFRβ (Homo sapiens (Human), UniProt P09619); test: Inhibition of PDGFRβ kinase activity (HTRF KinEASE-TK); settings: biochemical, HTRF KinEASE-TK
How it was run: as §1

[1] = test system: Phospho-KIT (Y703) in M07e cells; test: Phospho-KIT (Y703) cellular assay in M07e cells; assay type: cell-based; settings: M-07e, read-out: M07e Cell IC50
How it was run: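 Serum-starved M07e cells preincubated 50 min at 37° C with 11-point half-log compound titration, then stimulated 10 min with SCF at 90.9 ng/mL final. Fixed, permeabilized cells stained for phospho-KIT Y703 and read by flow cytometry (live-gated geometric mean); IC50 by 4-parameter fit normalized to DMSO and positive control.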

PDGFRα = PDGFRα (Homo sapiens (Human), UniProt P16234); test: Inhibition of PDGFRα kinase activity (HTRF KinEASE-TK); settings: biochemical, HTRF KinEASE-TK
How it was run: as §1

Sequence of PDGFRα (P16234 24-1089): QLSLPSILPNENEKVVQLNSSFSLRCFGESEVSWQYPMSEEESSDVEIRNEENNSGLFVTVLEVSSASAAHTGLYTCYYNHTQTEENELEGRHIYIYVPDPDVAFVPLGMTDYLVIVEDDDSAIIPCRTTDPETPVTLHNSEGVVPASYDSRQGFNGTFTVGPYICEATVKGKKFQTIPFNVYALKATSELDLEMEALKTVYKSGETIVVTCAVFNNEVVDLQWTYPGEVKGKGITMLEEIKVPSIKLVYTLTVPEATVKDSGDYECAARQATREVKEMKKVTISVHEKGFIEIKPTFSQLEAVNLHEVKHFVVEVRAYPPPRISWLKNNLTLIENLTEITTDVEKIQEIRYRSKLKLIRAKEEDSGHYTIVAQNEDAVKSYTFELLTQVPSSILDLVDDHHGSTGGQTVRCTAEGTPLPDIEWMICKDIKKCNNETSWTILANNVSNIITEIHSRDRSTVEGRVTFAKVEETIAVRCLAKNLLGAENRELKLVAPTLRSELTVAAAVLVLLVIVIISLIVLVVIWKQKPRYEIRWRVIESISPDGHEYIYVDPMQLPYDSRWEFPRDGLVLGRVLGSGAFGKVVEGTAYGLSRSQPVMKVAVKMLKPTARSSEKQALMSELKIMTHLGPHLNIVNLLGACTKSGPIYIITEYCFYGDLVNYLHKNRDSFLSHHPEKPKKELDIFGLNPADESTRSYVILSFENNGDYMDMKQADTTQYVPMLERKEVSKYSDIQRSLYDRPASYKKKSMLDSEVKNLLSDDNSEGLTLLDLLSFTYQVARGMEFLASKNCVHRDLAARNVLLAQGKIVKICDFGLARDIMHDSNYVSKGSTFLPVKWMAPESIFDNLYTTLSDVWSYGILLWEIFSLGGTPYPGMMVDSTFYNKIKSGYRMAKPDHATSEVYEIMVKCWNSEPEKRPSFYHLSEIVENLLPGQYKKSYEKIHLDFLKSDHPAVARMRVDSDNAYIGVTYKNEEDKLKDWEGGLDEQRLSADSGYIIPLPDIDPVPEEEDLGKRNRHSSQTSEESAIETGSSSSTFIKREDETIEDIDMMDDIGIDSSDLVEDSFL
Sequence of CSF1R (P07333 20-972): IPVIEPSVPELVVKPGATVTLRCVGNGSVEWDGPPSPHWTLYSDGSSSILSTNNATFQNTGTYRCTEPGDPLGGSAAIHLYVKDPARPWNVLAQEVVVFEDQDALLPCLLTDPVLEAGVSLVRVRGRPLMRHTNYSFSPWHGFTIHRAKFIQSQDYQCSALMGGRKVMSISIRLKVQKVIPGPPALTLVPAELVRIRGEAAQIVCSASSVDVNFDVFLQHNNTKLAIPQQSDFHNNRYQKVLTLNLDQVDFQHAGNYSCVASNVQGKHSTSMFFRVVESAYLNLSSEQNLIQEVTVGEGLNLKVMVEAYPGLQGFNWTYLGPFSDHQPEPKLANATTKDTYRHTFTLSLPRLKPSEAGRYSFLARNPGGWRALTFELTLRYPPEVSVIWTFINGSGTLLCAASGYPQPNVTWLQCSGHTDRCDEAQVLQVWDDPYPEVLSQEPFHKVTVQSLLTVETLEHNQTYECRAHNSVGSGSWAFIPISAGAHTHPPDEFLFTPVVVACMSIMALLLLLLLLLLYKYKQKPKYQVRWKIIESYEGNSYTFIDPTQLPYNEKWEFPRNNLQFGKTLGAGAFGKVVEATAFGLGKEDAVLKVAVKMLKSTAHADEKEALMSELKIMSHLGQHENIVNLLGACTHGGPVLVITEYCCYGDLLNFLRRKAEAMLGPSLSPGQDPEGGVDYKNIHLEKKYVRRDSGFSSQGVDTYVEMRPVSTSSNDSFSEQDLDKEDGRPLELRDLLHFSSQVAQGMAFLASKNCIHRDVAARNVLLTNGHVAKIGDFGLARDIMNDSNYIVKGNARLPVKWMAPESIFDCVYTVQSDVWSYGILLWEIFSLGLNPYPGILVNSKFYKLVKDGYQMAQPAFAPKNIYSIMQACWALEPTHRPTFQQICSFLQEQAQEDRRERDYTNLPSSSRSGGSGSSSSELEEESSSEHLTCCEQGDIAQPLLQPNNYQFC
Sequence of PDGFRβ (P09619 33-1106): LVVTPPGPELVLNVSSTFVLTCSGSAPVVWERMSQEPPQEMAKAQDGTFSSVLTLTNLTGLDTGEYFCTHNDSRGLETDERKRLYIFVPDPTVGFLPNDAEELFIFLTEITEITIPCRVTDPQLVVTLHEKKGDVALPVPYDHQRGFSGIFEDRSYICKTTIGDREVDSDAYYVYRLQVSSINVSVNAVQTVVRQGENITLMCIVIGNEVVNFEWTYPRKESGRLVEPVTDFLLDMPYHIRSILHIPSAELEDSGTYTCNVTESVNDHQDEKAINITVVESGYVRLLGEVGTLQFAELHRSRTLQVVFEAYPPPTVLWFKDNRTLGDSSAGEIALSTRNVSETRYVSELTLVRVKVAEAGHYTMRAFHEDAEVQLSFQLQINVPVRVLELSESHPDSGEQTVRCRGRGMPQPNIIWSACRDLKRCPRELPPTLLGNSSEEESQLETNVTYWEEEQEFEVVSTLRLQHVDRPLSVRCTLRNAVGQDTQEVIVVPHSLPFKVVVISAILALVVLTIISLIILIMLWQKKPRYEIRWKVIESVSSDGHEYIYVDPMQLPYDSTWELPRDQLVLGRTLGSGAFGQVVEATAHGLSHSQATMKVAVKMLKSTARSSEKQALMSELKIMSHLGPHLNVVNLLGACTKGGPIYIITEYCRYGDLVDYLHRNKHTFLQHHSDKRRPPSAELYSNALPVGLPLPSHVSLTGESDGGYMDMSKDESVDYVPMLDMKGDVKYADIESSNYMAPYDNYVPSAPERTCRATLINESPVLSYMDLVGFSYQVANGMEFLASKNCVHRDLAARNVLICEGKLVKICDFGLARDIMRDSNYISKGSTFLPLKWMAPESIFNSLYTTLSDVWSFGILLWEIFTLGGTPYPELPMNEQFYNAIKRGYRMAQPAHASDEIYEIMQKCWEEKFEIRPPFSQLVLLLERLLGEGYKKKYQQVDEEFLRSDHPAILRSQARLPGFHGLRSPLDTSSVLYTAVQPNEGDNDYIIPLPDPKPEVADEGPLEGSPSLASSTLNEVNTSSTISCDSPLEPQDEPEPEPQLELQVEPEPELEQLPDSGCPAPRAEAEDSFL
Sequence of FLT3 (P36888 27-993): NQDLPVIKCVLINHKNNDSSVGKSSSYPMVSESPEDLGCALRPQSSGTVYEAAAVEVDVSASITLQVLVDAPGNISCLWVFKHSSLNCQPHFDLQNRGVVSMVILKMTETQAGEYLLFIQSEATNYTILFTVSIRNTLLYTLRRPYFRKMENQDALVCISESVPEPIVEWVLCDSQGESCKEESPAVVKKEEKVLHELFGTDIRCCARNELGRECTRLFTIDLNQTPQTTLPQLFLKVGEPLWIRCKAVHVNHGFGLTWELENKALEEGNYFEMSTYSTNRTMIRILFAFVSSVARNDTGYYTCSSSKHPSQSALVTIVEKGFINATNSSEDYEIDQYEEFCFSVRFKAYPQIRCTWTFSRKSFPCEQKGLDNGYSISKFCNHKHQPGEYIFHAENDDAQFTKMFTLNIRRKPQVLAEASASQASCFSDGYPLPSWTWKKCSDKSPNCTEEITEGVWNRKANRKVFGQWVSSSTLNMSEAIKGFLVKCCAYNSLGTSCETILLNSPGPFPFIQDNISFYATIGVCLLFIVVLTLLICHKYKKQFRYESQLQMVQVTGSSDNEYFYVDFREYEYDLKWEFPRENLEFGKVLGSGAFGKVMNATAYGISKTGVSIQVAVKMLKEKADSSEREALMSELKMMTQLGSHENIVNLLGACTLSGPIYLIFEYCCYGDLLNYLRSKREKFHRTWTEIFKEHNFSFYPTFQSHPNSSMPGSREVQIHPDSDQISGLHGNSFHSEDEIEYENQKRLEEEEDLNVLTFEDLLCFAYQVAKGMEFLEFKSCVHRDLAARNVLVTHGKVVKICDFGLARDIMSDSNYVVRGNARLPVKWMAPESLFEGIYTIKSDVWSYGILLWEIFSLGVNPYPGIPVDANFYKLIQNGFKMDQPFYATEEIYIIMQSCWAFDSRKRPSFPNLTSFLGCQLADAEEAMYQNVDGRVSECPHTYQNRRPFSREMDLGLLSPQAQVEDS
Sequence of c-Kit (P10721 26-976): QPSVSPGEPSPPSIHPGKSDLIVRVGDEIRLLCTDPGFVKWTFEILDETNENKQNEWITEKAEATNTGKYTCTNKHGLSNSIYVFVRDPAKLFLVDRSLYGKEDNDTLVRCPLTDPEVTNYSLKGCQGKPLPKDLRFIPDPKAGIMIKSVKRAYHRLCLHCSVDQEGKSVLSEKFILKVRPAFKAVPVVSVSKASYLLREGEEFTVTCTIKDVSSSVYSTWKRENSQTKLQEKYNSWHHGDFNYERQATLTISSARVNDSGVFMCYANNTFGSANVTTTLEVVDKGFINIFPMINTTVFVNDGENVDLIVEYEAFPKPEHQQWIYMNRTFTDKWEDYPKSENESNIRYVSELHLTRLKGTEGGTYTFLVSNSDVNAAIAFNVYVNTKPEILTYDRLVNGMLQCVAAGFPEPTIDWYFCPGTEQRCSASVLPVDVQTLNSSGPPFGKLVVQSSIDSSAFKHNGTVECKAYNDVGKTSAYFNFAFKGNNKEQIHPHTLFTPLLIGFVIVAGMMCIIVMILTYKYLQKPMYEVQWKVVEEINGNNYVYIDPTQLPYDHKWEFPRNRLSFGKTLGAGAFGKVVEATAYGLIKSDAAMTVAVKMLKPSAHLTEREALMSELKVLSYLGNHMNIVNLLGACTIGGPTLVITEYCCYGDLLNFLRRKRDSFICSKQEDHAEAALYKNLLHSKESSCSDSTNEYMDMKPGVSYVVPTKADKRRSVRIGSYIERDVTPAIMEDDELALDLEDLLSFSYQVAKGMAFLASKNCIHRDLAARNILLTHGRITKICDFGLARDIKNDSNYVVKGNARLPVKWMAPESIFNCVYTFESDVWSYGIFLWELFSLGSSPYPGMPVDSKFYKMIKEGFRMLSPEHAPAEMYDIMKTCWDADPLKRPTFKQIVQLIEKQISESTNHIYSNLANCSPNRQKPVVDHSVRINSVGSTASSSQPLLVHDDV

SMILES | IC50 (FLT3; biochemical, HTRF KinEASE-TK) [µM] | IC50 (c-Kit; biochemical, HTRF KinEASE-TK) [µM] | IC50 (CSF1R) [µM] | IC50 (PDGFRβ) [µM] | IC50 ([1]; Phospho-KIT (Y703), M07e cells) [µM] | IC50 (PDGFRα) [µM] | IC50 (FLT3) [µM] | IC50 (c-Kit) [µM] | IC50 [1] [µM]
Cc1cc(F)c(C(=O)Nc2ccc(C3CC3)nn2)cc1NC(=O)c1cnc(N)s1 [Example 135, 2-Amino-N-[5-[(6-cyclopropylpyridazin-3-yl)carbamoyl]-4-fluoro-2-methylphenyl]-1,3-thiazole-5-carboxamide] | > 1 | < 0.1 | 0.1 to 1 | < 0.1 | < 0.1 | 0.1 to 1 | – | – | –
Cc1cc(F)c(C(=O)Nc2ccc(OC(C)C)cn2)cc1NC(=O)c1cnc(N)s1 [Example 140, 2-Amino-N-[4-fluoro-2-methyl-5-[(5-propan-2-yloxypyridin-2-yl)carbamoyl]phenyl]-1,3-thiazole-5-carboxamide] | – | – | 0.1 to 1 | 0.1 to 1 | – | 0.1 to 1 | > 1 | < 0.1 | < 0.1
Cc1cc(F)c(C(=O)Nc2ccc(OC3(C)CC3)cn2)cc1NC(=O)c1cnc(N)s1 [Example 147, 2-Amino-N-[4-fluoro-2-methyl-5-[[5-(1-methylcyclopropyl)oxypyridin-2-yl]carbamoyl]phenyl]-1,3-thiazole-5-carboxamide] | > 1 | < 0.1 | 0.1 to 1 | < 0.1 | < 0.1 | 0.1 to 1 | – | – | –
Cc1cc(F)c(C(=O)Nc2ccn(CC(F)F)n2)cc1NC(=O)c1cnc(N)s1 [Example 148, 2-Amino-N-[5-[[1-(2,2-difluoroethyl)pyrazol-3-yl]carbamoyl]-4-fluoro-2-methylphenyl]-1,3-thiazole-5-carboxamide] | > 1 | < 0.1 | > 1 | 0.1 to 1 | < 0.1 | > 1 | – | – | –
Cc1cc(F)c(C(=O)Nc2ccn([C@@H]3CCOC3)n2)cc1NC(=O)c1cnc(N)s1 [Example 149, 2-Amino-N-[4-fluoro-2-methyl-5-[[1-[(3R)-oxolan-3-yl]pyrazol-3-yl]carbamoyl]phenyl]-1,3-thiazole-5-carboxamide] | > 1 | < 0.1 | > 1 | 0.1 to 1 | < 0.1 | > 1 | – | – | –
Cc1cc(F)c(C(=O)Nc2ccn(C3CCOCC3)n2)cc1NC(=O)c1cnc(N)s1 [Example 150, 2-Amino-N-[4-fluoro-2-methyl-5-[[1-(oxan-4-yl)pyrazol-3-yl]carbamoyl]phenyl]-1,3-thiazole-5-carboxamide] | > 1 | < 0.1 | > 1 | > 1 | < 0.1 | > 1 | – | – | –
Cc1cc(F)c(C(=O)Nc2ccn(C3CCC3)n2)cc1NC(=O)c1cnc(N)s1 [Example 155, 2-Amino-N-[5-[(1-cyclobutylpyrazol-3-yl)carbamoyl]-4-fluoro-2-methylphenyl]-1,3-thiazole-5-carboxamide] | > 1 | < 0.1 | > 1 | 0.1 to 1 | < 0.1 | 0.1 to 1 | – | – | –
Cc1cc(F)c(C(=O)Nc2cc3n(n2)CCC3)cc1NC(=O)c1cnc(N)s1 [Example 156, 2-Amino-N-[5-(5,6-dihydro-4H-pyrrolo[1,2-b]pyrazol-2-ylcarbamoyl)-4-fluoro-2-methylphenyl]-1,3-thiazole-5-carboxamide] | > 1 | < 0.1 | > 1 | 0.1 to 1 | < 0.1 | > 1 | – | – | –
CCn1ccc(NC(=O)c2cc(NC(=O)c3cnc(N)s3)c(C)cc2F)n1 [Example 179, 2-Amino-N-[5-[(1-ethylpyrazol-3-yl)carbamoyl]-4-fluoro-2-methylphenyl]-1,3-thiazole-5-carboxamide] | > 1 | < 0.1 | > 1 | > 1 | < 0.1 | > 1 | – | – | –
Cc1cc(F)c(C(=O)Nc2ccn(C(F)F)n2)cc1NC(=O)c1cnc(N)s1 [Example 181, 2-Amino-N-[5-[[1-(difluoromethyl)pyrazol-3-yl]carbamoyl]-4-fluoro-2-methylphenyl]-1,3-thiazole-5-carboxamide] | > 1 | < 0.1 | > 1 | > 1 | < 0.1 | > 1 | – | – | –
CO[C@H]1C[C@H](n2ccc(NC(=O)c3cc(NC(=O)c4cnc(N)s4)c(C)cc3F)n2)C1 [Example 187, 2-Amino-N-[4-fluoro-5-[[1-(trans-3-methoxycyclobutyl)pyrazol-3-yl]carbamoyl]-2-methylphenyl]-1,3-thiazole-5-carboxamide] | > 1 | < 0.1 | > 1 | > 1 | < 0.1 | > 1 | – | – | –

Continued, in another order:

IC50 (FLT3; biochemical, HTRF KinEASE-TK) [µM] | IC50 (c-Kit; biochemical, HTRF KinEASE-TK) [µM] | IC50 (CSF1R) [µM] | IC50 (PDGFRβ) [µM] | IC50 ([1]; Phospho-KIT (Y703), M07e cells) [µM] | IC50 (PDGFRα) [µM] | SMILES | IC50 (FLT3) [µM] | IC50 (c-Kit) [µM] | IC50 [1] [µM]
> 1 | < 0.1 | > 1 | > 1 | < 0.1 | > 1 | Cc1ccc(NC(=O)c2cc(NC(=O)c3cnc(N)s3)c(C)cc2F)nc1 [Example 133, 2-Amino-N-[4-fluoro-2-methyl-5-[(5-methylpyridin-2-yl)carbamoyl]phenyl]-1,3-thiazole-5-carboxamide] | – | – | –
> 1 | < 0.1 | 0.1 to 1 | < 0.1 | < 0.1 | 0.1 to 1 | Cc1cc(F)c(C(=O)Nc2ccc(OC3CCC3)cn2)cc1NC(=O)c1cnc(N)s1 [Example 134, 2-Amino-N-[5-[(5-cyclobutyloxypyridin-2-yl)carbamoyl]-4-fluoro-2-methylphenyl]-1,3-thiazole-5-carboxamide] | – | – | –
> 1 | < 0.1 | > 1 | 0.1 to 1 | < 0.1 | 0.1 to 1 | Cc1cc(F)c(C(=O)Nc2ccn(C3CC(F)(F)C3)n2)cc1NC(=O)c1cnc(N)s1 [Example 139, 2-Amino-N-[5-[[1-(3,3-difluorocyclobutyl)pyrazol-3-yl]carbamoyl]-4-fluoro-2-methylphenyl]-1,3-thiazole-5-carboxamide] | – | – | –
> 1 | < 0.1 | > 1 | 0.1 to 1 | < 0.1 | 0.1 to 1 | Cc1cc(F)c(C(=O)Nc2ccn(CC(C)C)n2)cc1NC(=O)c1cnc(N)s1 [Example 142, 2-Amino-N-[4-fluoro-2-methyl-5-[[1-(2-methylpropyl)pyrazol-3-yl]carbamoyl]phenyl]-1,3-thiazole-5-carboxamide] | – | – | –
> 1 | < 0.1 | > 1 | 0.1 to 1 | < 0.1 | > 1 | Cc1cc(F)c(C(=O)Nc2ccc(OCC3CC3)cn2)cc1NC(=O)c1cnc(N)s1 [Example 143, 2-Amino-N-[5-[[5-(cyclopropylmethoxy)pyridin-2-yl]carbamoyl]-4-fluoro-2-methylphenyl]-1,3-thiazole-5-carboxamide] | – | – | –
> 1 | < 0.1 | > 1 | 0.1 to 1 | < 0.1 | 0.1 to 1 | Cc1cc(F)c(C(=O)Nc2ccc(OC3CC3)c(C)n2)cc1NC(=O)c1cnc(N)s1 [Example 152, 2-Amino-N-[5-[(5-cyclopropyloxy-6-methylpyridin-2-yl)carbamoyl]-4-fluoro-2-methylphenyl]-1,3-thiazole-5-carboxamide] | – | – | –
> 1 | < 0.1 | > 1 | 0.1 to 1 | < 0.1 | 0.1 to 1 | Cc1cc(F)c(C(=O)Nc2ccn(C(C)C)n2)cc1NC(=O)c1cnc(N)s1 [Example 158, 2-Amino-N-[4-fluoro-2-methyl-5-[(1-propan-2-ylpyrazol-3-yl)carbamoyl]phenyl]-1,3-thiazole-5-carboxamide] | – | – | –
> 1 | < 0.1 | > 1 | > 1 | < 0.1 | > 1 | Cc1cc(F)c(C(=O)Nc2ccn(C3CC3)n2)cc1NC(=O)c1cnc(N)s1 [Example 159, 2-Amino-N-[5-[(1-cyclopropylpyrazol-3-yl)carbamoyl]-4-fluoro-2-methylphenyl]-1,3-thiazole-5-carboxamide] | – | – | –
> 1 | < 0.1 | > 1 | > 1 | < 0.1 | > 1 | Cc1cc(F)c(C(=O)Nc2ccn(-c3ccccc3)n2)cc1NC(=O)c1cnc(N)s1 [Example 172, 2-Amino-N-[4-fluoro-2-methyl-5-[(1-phenylpyrazol-3-yl)carbamoyl]phenyl]-1,3-thiazole-5-carboxamide] | – | – | –
> 1 | < 0.1 | > 1 | > 1 | < 0.1 | > 1 | CO[C@H]1C[C@@H](n2ccc(NC(=O)c3cc(NC(=O)c4cnc(N)s4)c(C)cc3F)n2)C1 [Example 185, 2-Amino-N-[4-fluoro-5-[[1-(cis-3-methoxycyclobutyl)pyrazol-3-yl]carbamoyl]-2-methylphenyl]-1,3-thiazole-5-carboxamide] | – | – | –
